In PMC6965684, “Characterization of binding, functional activity, and contractile responses of the selective 5‐HT1F receptor agonist lasmiditan” (British Journal of Pharmacology, 2019):
Where a name gives a salt, the structure may show the parent alone. Read-outs that look alike come from different tables or passages of the source.

Experiments:
5-HT2A receptor [1] = molecular target: T1, 5-HT2A receptor (Homo sapiens, UniProt P28223); test: biochemical; type: CHO-K1 membranes; parameters: radioligand competition binding on cell membranes, filtration and TopCount scintillation counting
T1 construct: gene HTR2A; full-length human recombinant receptor in CHO-K1 cells (Ogeda); crude membranes
T1 sequence (P28223 whole entry): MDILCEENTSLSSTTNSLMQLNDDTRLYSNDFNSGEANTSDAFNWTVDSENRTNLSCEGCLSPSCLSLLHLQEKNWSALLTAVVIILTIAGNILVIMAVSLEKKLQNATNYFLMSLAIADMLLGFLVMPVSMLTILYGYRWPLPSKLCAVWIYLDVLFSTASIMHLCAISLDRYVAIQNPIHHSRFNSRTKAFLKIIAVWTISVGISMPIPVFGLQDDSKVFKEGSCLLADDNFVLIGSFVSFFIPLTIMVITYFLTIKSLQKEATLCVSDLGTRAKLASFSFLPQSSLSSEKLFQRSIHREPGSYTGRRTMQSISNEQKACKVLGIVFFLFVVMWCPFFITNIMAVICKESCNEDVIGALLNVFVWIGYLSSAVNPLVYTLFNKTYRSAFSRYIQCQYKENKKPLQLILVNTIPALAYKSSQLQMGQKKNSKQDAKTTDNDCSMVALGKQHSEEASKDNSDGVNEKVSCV
Description: Competition binding was performed in duplicate in the wells of a 96‐well plate containing binding buffer (optimized for each receptor), cell membrane extracts (approximately 20,000 cells distributed in the 96‐well plate), radiotracer, and test agonist. Non‐specific binding was determined by co‐incubation with 200‐fold excess of competitor. Cells were incubated and exposed to varying concentrations (1 pM to 10 μM) of a range of displacer agonists (see below). The samples were incubated in a final volume of 0.1 ml and then filtered over Unifilter plates (Perkin Elmer, Massachusetts, USA) pretreated for 2 hr to limit tracer non‐specific binding. Filters were washed five times with 0.5 ml of ice‐cold washing buffer (tris 50 mM pH 7.4) and 50 μl of Microscint 20 (Perkin Elmer) were added to each filter. The plates were incubated 15 min at room temperature on an orbital shaker and then counted with a TopCount™ (Perkin Elmer) for 1 min per well. […] Additionally, the reference values obtained were compared to historical values obtained from the same receptor and used to validate the experimental session. […] For the new assays developed in this study (i.e., 5‐ht1E receptor), the two independent pIC50 determined must be concordant with a 1 log unit interval for the assays to be validated. […]

5-HT2A receptor [2] = molecular target: T1, 5-HT2A receptor; test: cell-based; parameters: species or system CHO-K1; IPOne HTRF agonist assay, IP1 accumulation in adherent transfected cells
Description: The assay was performed on adherent cells. For agonist testing, the medium was removed and 20 μl of assay buffer plus 20 μl of the studied agonist or the reference agonist were added in each well. The plate was incubated for 60 min at 37°C with 5% CO2. IP1‐D2 reagent and anti‐IP1 cryptate reagents were dispensed in the wells, and IP1 concentrations were then measured following the manufacturer instructions (IPOne HTRF assay kit; Cisbio International, Codolet, France). In brief, increasing concentrations of agonists were added to stably transfected cells in buffer in an Optiplate (PerkinElmer Life Sciences). The plates were incubated, and cells were then lysed by the addition of HTRF reagents (IP1‐D2 reagent and anti‐IP1 cryptate reagents) and diluted in lysis buffer, followed by incubation at room temperature. […] Additionally, the reference values obtained were compared to historical values obtained from the same receptor and used to validate the experimental session. […] For the new assays developed in this study (i.e., 5‐ht1E receptor), the two independent pIC50 determined must be concordant with a 1 log unit interval for the assays to be validated. […]

5-HT1F receptor [3] = molecular target: T2, 5-HT1F receptor (Homo sapiens, UniProt P30939); test: cAMP HTRF, stably transfected CHO-K1 cells; type: cell-based; details: agonist mode; inhibition of stimulated cAMP, […] min, room temperature
T2 construct: gene HTR1F; full-length human recombinant receptor in CHO-K1 cells (Ogeda)
T2 sequence (P30939 1-366): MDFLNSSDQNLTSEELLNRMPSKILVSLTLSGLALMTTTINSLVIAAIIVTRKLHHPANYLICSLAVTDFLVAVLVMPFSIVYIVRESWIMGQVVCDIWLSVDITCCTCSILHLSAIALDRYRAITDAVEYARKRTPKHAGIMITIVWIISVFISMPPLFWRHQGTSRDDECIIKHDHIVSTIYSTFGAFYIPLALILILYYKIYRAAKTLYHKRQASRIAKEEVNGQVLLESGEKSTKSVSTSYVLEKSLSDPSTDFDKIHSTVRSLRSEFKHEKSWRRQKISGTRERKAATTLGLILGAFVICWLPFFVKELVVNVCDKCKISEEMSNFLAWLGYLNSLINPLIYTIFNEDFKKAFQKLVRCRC

5-HT1D receptor = molecular target: T3, 5-HT1D receptor (Homo sapiens, UniProt P28221); test: radioligand competition, CHO-K1 membranes; type: binding; details: radioligand listed in supplement Table S1
T3 construct: gene HTR1D; full-length human recombinant receptor in CHO-K1 cells (Ogeda); crude membranes
T3 sequence (P28221 whole entry): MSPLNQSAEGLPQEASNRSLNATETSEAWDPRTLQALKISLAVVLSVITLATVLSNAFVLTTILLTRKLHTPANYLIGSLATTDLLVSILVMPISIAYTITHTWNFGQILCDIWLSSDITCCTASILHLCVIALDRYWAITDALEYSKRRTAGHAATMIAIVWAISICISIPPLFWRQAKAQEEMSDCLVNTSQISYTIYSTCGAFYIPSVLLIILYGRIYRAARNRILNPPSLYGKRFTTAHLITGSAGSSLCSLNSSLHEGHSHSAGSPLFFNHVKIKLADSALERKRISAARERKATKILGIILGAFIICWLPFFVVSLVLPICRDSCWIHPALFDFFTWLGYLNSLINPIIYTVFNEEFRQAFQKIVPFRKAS
Excerpt: radioligand competition, CHO-K1 membranes on 5-HT1D receptor

5-ht1E receptor [4] = molecular target: T4, 5-ht1E receptor (Homo sapiens, UniProt P28566); test: radioligand competition, CHO-K1 membranes; type: binding
T4 construct: gene HTR1E; full-length human recombinant receptor in CHO-K1 cells (Ogeda); crude membranes
T4 sequence (P28566 whole entry): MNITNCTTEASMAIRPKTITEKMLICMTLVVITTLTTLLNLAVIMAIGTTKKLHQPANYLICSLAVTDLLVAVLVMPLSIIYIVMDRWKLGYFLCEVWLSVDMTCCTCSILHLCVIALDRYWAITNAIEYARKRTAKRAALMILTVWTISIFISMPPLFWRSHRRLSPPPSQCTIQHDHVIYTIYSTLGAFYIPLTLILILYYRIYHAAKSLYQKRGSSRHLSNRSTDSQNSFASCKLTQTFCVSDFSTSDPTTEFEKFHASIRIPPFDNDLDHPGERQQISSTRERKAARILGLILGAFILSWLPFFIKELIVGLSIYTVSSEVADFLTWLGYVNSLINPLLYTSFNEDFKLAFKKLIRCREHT
Excerpt: radioligand competition, CHO-K1 membranes on 5-ht1E receptor

5-HT1A receptor = molecular target: T5, 5-HT1A receptor (Homo sapiens, UniProt P08908); test: radioligand competition, CHO-K1 membranes; type: binding; details: radioligand listed in supplement Table S1
T5 construct: gene HTR1A; full-length human recombinant receptor in CHO-K1 cells (Ogeda); crude membranes
T5 sequence (P08908 1-422): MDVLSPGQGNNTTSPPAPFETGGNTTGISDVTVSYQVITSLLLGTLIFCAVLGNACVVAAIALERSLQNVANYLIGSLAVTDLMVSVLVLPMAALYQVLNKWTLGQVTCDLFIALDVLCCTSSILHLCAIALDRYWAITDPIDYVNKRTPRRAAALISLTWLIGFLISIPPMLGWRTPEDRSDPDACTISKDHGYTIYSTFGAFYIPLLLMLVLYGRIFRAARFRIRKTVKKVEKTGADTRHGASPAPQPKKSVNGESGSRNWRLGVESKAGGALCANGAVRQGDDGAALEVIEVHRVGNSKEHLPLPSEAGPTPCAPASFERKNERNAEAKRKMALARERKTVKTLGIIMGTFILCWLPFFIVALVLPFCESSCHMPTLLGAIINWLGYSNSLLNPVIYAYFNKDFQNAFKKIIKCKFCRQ
Excerpt: radioligand competition, CHO-K1 membranes on 5-HT1A receptor

5-HT1B receptor = molecular target: T6, 5-HT1B receptor (Homo sapiens, UniProt P28222); test: radioligand competition, CHO-K1 membranes; type: binding; details: radioligand listed in supplement Table S1
T6 construct: gene HTR1B; full-length human recombinant receptor in CHO-K1 cells (Ogeda); crude membranes
T6 sequence (P28222 whole entry): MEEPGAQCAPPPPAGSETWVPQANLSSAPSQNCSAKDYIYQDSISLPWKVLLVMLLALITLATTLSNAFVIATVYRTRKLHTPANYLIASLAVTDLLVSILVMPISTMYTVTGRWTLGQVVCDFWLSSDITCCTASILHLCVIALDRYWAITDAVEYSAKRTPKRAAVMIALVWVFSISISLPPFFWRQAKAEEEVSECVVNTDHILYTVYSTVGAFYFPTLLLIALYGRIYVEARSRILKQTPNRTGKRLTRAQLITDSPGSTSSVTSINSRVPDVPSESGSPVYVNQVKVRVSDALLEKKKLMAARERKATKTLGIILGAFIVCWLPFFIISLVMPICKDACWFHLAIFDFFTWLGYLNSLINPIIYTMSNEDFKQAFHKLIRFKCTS
Excerpt: radioligand competition, CHO-K1 membranes on 5-HT1B receptor

5-HT1F receptor [5] = molecular target: T2, 5-HT1F receptor; test: radioligand competition, CHO-K1 membranes; type: binding; details: radioligand listed in supplement Table S1
5-HT2B receptor = molecular target: T7, 5-HT2B receptor (Homo sapiens, UniProt P41595); test: radioligand competition, CHO-K1 membranes; type: binding
T7 construct: gene HTR2B; full-length human recombinant receptor in CHO-K1 cells (Ogeda); crude membranes
T7 sequence (P41595 whole entry): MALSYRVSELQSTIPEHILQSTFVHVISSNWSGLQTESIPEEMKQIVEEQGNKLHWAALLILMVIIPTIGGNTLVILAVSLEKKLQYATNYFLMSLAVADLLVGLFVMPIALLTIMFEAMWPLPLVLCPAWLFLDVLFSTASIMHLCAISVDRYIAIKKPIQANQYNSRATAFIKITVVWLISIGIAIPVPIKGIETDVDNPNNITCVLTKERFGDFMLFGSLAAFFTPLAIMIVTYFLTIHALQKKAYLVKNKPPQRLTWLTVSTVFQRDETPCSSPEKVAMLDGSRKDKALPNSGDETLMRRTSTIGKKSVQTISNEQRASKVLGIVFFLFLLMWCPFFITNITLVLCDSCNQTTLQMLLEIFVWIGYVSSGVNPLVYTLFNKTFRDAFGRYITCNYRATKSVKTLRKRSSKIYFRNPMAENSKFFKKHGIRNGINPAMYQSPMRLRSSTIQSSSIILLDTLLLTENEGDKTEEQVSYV
Excerpt: radioligand competition, CHO-K1 membranes on 5-HT2B receptor

5-ht1E receptor [6] = molecular target: T4, 5-ht1E receptor; test: biochemical; type: CHO-K1 membranes; parameters: radioligand competition binding on cell membranes, filtration and TopCount scintillation counting; details: radioligand displacement; read-out: 5‐ht1E / pIC50 (converted)
Description: Competition binding was performed in duplicate in the wells of a 96‐well plate containing binding buffer (optimized for each receptor), cell membrane extracts (approximately 20,000 cells distributed in the 96‐well plate), radiotracer, and test agonist. Non‐specific binding was determined by co‐incubation with 200‐fold excess of competitor. Cells were incubated and exposed to varying concentrations (1 pM to 10 μM) of a range of displacer agonists (see below). The samples were incubated in a final volume of 0.1 ml and then filtered over Unifilter plates (Perkin Elmer, Massachusetts, USA) pretreated for 2 hr to limit tracer non‐specific binding. Filters were washed five times with 0.5 ml of ice‐cold washing buffer (tris 50 mM pH 7.4) and 50 μl of Microscint 20 (Perkin Elmer) were added to each filter. The plates were incubated 15 min at room temperature on an orbital shaker and then counted with a TopCount™ (Perkin Elmer) for 1 min per well. […] Additionally, the reference values obtained were compared to historical values obtained from the same receptor and used to validate the experimental session. […] For the new assays developed in this study (i.e., 5‐ht1E receptor), the two independent pIC50 determined must be concordant with a 1 log unit interval for the assays to be validated.

5-ht1E receptor [7] = molecular target: T4, 5-ht1E receptor; test: biochemical; type: CHO-K1 membranes; parameters: GTPγS agonist functional assay; details: GTPγS
Excerpt: Additionally, the reference values obtained were compared to historical values obtained from the same receptor and used to validate the experimental session. […] For the new assays developed in this study (i.e., 5‐ht1E receptor), the two independent pIC50 determined must be concordant with a 1 log unit interval for the assays to be validated.

5-ht1E receptor [8] = molecular target: T4, 5-ht1E receptor; test: cell-based; parameters: species or system CHO-K1; cAMP HTRF agonist assay, Gi coupled receptors, inhibition of stimulated cAMP; details: cAMP
Description: Concentration–response curves were performed in parallel with the agonists. […] After addition of the lysis buffer and 1‐hr incubation, cAMP concentrations were estimated according to the manufacturer specification with the HTRF kit (Cisbio International, Codelet, France). In brief, increasing concentrations of agonists were added to stably transfected cells in buffer in an Optiplate (PerkinElmer Life Sciences, Massachusetts, USA). The plates were incubated, and cells were then lysed by the addition of HTRF reagents (cAMP‐Cryptate and anti‐cAMP‐d2 reagents) and diluted in lysis buffer, followed by incubation at room temperature. […] Additionally, the reference values obtained were compared to historical values obtained from the same receptor and used to validate the experimental session. […] For the new assays developed in this study (i.e., 5‐ht1E receptor), the two independent pIC50 determined must be concordant with a 1 log unit interval for the assays to be validated.

[9] = radioligand displacement, read-out: 5‐HT2A / pIC50 (converted)
[10] = radioligand displacement, read-out: 5‐HT2A / pKi (converted)
[11] = IP, read-out: 5‐HT2A / IP (converted)
[12] = radioligand listed in supplement Table S1

Compound: CN(C)CCc1c[nH]c2ccc(CS(=O)(=O)N3CCCC3)cc12 [Almotriptan malate]
- IC50 (5-HT2A receptor [1]; [9]): > 10 µM
- Ki (5-HT2A receptor [1]; [10]): > 10 µM
- EC50 (5-HT2A receptor [2]; [11]): > 10 µM
- 5-HT1F / cAMP (5-HT1F receptor [3]): 7.79 -log M
- 5-HT1D / pKi (5-HT1D receptor): 8.26 -log M
- 5-ht1E / pKi (5-ht1E receptor [4]; [12]): < 5 -log M
- 5-HT1A / pKi (5-HT1A receptor): 6.73 -log M
- 5-HT1B / pKi (5-HT1B receptor): 8.45 -log M
- 5-HT1F / pKi (5-HT1F receptor [5]): 7.57 -log M
- / pKi (5-HT2B receptor; [12]): < 5 -log M

Compound: c1ccc2c(c1)CC[C@H](CNCCCNC1=NCCCN1)O2 [Alniditan dihydrochloride]
- IC50 (5-HT2A receptor [1]; [9]): > 10 µM
- EC50 (5-HT2A receptor [2]; [11]): > 10 µM

Compound: CN1CCC(c2c[nH]c3ccc(NC(=O)c4ccc(F)cc4)cc23)CC1 [LY334370 hydrochloride]
- IC50 (5-HT2A receptor [1]; [9]): 7.76 µM
- EC50 (5-HT2A receptor [2]; [11]): > 10 µM

Compound: CN(C)CCc1c[nH]c2ccc(Cn3cncn3)cc12 [Rizatriptan benzoate]
- IC50 (5-HT2A receptor [1]): > 10 µM
- Ki (5-HT2A receptor [1]): > 10 µM
- EC50 (5-HT2A receptor [2]): > 10 µM

Compound: CNS(=O)(=O)Cc1ccc2[nH]cc(CCN(C)C)c2c1 [Sumatriptan succinate]
- IC50 (5-ht1E receptor [6]): 3.8 µM
- Ki (5-ht1E receptor [4]; read-out: 5-ht1E / pKi (converted)): 1.91 µM
- EC50 (5-ht1E receptor [7]): 1.62 µM
- Ki (5-HT2B receptor; read-out: / pKi (converted)): > 10 µM
- EC50 (5-ht1E receptor [8]): 1.02 µM

Compound: CN(C)CCc1c[nH]c2ccc(C[C@H]3COC(=O)N3)cc12 [Zolmitriptan]
- IC50 (5-HT2A receptor [1]; [9]): > 10 µM
- Ki (5-HT2A receptor [1]; [10]): > 10 µM
- EC50 (5-HT2A receptor [2]; [11]): > 10 µM
